# Biological target: human KV7.2/KV7.3 (Homo sapiens (Human), UniProt O43525+O43526)
# Assay: Potassium flux assay (IPG-2 AM dye)
# Type: cell-based
# Conditions: TREX HEK 293 or HEK 293 cells expressing human KV7.2/KV7.3; arithmetic mean values
# Outline: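 EC50 from 16 concentrations (2-fold dilutions, top 30 μM), scaled between DMSO baseline and a known KV7.x modulator maximum. Signal is IPG-2 AM fluorescence (ex 530/em 558 nm) after 10 mM KCl challenge buffer addition, following 20 min room-temperature compound exposure of HEK 293 or TREX HEK 293 cells stably expressing human KV7.2/KV7.3.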
row,EC50,Structure (SMILES)
1,1 to 10 µM,"CC(C)(COc1ccc2c(Nc3ccc(Cl)nc3)nccc2c1)N1CCOCC1 [Example 101, N-(6-chloropyridin-3-yl)-6-(2-methyl-2-morpholinopropoxy)isoquinolin-1-amine]"
2,1 to 10 µM,"O=C1OCCN1CCOc1ccc2c(Nc3ccc(Cl)nc3)nccc2c1 [Example 107, 3-(2-((1-((6-chloropyridin-3-yl)amino)isoquinolin-6-yl)oxy)ethyl)oxazolidin-2-one]"
3,1 to 10 µM,"CC(CN1CCOCC1)Oc1ccc2c(Nc3ccc(Cl)nc3)nccc2c1 (stereo not shown) [Example 109, N-(6-chloropyridin-3-yl)-6-((1-morpholinopropan-2-yl)oxy)isoquinolin-1-amine]"
4,1 to 10 µM,"CC(=O)N1CC[C@@H](Oc2ccc3c(Nc4ccc(Cl)nc4)nccc3c2)C1 [Example 112, (R)-1-(3-((1-((6-chloropyridin-3-yl)amino)isoquinolin-6-yl)oxy)pyrrolidin-1-yl)ethan-1-one]"
5,< 1 µM,"Clc1ccc(Nc2nccc3cc(OC4CC5(COC5)C4)ccc23)cn1 [Example 113, 6-((2-oxaspiro[3.3]heptan-6-yl)oxy)-N-(6-chloropyridin-3-yl)isoquinolin-1-amine]"
6,< 1 µM,"Clc1ccc(Nc2nccc3cc(OCC4CC5(CCO5)C4)ccc23)cn1 (stereo not shown) [Example 114, 6-((1-oxaspiro[3.3]heptan-6-yl)methoxy)-N-(6-chloropyridin-3-yl)isoquinolin-1-amine]"
7,≥ 30 µM,"Clc1ccc(Nc2nccc3cc(OCC45CCCN4CCC5)ccc23)cn1 [Example 115, N-(6-chloropyridin-3-yl)-6-((tetrahydro-1H-pyrrolizin-7a(5H)-yl)methoxy)isoquinolin-1-amine]"
8,1 to 10 µM,"FC1CN(CCOc2ccc3c(Nc4ccc(Cl)nc4)nccc3c2)C1 [Example 116, N-(6-chloropyridin-3-yl)-6-(2-(3-fluoroazetidin-1-yl)ethoxy)isoquinolin-1-amine]"

# The next lines start with the compound.
row,Structure (SMILES),EC50
1,"O[C@H]1CC[C@@H](Oc2ccc3c(Nc4ccc(Cl)nc4)nccc3c2)CC1 [Example 100, Cis-4-((1-((6-chloropyridin-3-yl)amino)isoquinolin-6-yl)oxy)cyclohexan-1-ol]",< 1 µM
2,"CO[C@H]1CC[C@@H](Oc2ccc3c(Nc4ccc(Cl)nc4)nccc3c2)CC1 [Example 104, N-(6-chloropyridin-3-yl)-6-(((1s,4s)-4-methoxycyclohexyl)oxy)isoquinolin-1-amine]",10 to 30 µM
3,"CO[C@H]1CC[C@H](Oc2ccc3c(Nc4ccc(Cl)nc4)nccc3c2)CC1 [Example 105, N-(6-chloropyridin-3-yl)-6-(((1r,4r)-4-methoxycyclohexyl)oxy)isoquinolin-1-amine]",10 to 30 µM
4,"CC(Cc1cccnc1)Oc1ccc2c(Nc3ccc(Cl)nc3)nccc2c1 (stereo not shown) [Example 106, N-(6-chloropyridin-3-yl)-6-((1-(pyridin-3-yl)propan-2-yl)oxy)isoquinolin-1-amine]",1 to 10 µM
5,"Clc1ccc(Nc2nccc3cc(O[C@@H]4CCCN(Cc5ccccc5)C4)ccc23)cn1 [Example 108, (R)-6-((1-benzylpiperidin-3-yl)oxy)-N-(6-chloropyridin-3-yl)isoquinolin-1-amine]",1 to 10 µM
6,"CCOC(=O)C1(COc2ccc3c(Nc4ccc(Cl)nc4)nccc3c2)CC1 [Example 110, ethyl 1-(((1-((6-chloropyridin-3-yl)amino)isoquinolin-6-yl)oxy)methyl)cyclopropane-1-carboxylate]",1 to 10 µM
7,"CC(=O)N1CC[C@H](Oc2ccc3c(Nc4ccc(Cl)nc4)nccc3c2)C1 [Example 111, (S)-1-(3-((1-((6-chloropyridin-3-yl)amino)isoquinolin-6-yl)oxy)pyrrolidin-1-yl)ethan-1-one]",1 to 10 µM
8,"Clc1ccc(Nc2nccc3cc(OCc4cnn(C5COC5)c4)ccc23)cn1 [Example 117, N-(6-chloropyridin-3-yl)-6-((1-(oxetan-3-yl)-1H-pyrazol-4-yl)methoxy)isoquinolin-1-amine]",< 1 µM
